# According to ChEMBL document CHEMBL1136890, “Design, synthesis and anticancer activities of hybrids of indole and barbituric acids--identification of highly promising leads” (2009):
# Experiments:
# Format in all cases: functional
# UO-31 = assay: Growth inhibition of human UO31 cells at 10 uM; conditions: read-out: GI
# RXF 393 = assay: Growth inhibition of human RXF393 cells at 10 uM; conditions: read-out: GI
# CAKI-1 = assay: Growth inhibition of human Caki1 cells
# A498 = assay: Growth inhibition of human A498 cells; conditions: for CC50: read-out: LC50 (the source's name)
# NCI-H226 = assay: Growth inhibition of human NCI-H226 cells
# K562 = assay: Growth inhibition of human K562 cells; conditions: for CC50: read-out: LC50 (the source's name)
# TK-10 [1] = assay: Growth inhibition of human TK10 cells; conditions: for CC50: read-out: LC50 (the source's name)
# OVCAR-4 = assay: Growth inhibition of human OVCAR4 cells; conditions: for CC50: read-out: LC50 (the source's name)
# COLO 205 = assay: Growth inhibition of human COLO205 cells; conditions: for CC50: read-out: LC50 (the source's name)
# TK-10 [2] = assay: Growth inhibition of human TK10 cells at 10 uM; conditions: read-out: GI
# T47D = assay: Growth inhibition of human T47D cells; conditions: for CC50: read-out: LC50 (the source's name)
# [3] = Growth inhibition of human NCI60 cells
# OVCAR-5 = assay: Growth inhibition of human OVCAR5 cells; conditions: for CC50: read-out: LC50 (the source's name)
# IGROV-1 = assay: Growth inhibition of human IGROV1 cells; conditions: for CC50: read-out: LC50 (the source's name)
# MDA-MB-468 = assay: Growth inhibition of human MDA-MB-468 cells; conditions: for CC50: read-out: LC50 (the source's name)
# HOP-92 = assay: Growth inhibition of human HOP92 cells; conditions: for CC50: read-out: LC50 (the source's name)
# NCI-H460 = assay: Growth inhibition of human NCI-H460 cells
# SK-MEL-2 = assay: Growth inhibition of human SK-MEL-2 cells; conditions: for CC50: read-out: LC50 (the source's name)
# UACC-62 = assay: Growth inhibition of human UACC62 cells
# SF-295 = assay: Growth inhibition of human SF295 cells; conditions: for CC50: read-out: LC50 (the source's name)
structure (smiles),measurement,setting,value
O=C1NC(=O)C(=Cc2c[nH]c3ccccc23)C(=O)N1,inhibition of growth at 10 µM,UO-31,39%
Cc1ccc(S(=O)(=O)n2cc(C=C3C(=O)N(C)C(=O)N(C)C3=O)c3ccccc32)cc1,inhibition of growth at 10 µM,RXF 393,52%
same,inhibition of growth at 10 µM,UO-31,41%
O=C1NC(=O)C(=Cc2cn(C(=O)c3ccccc3)c3ccccc23)C(=O)N1,inhibition of growth at 10 µM,RXF 393,55%
same,inhibition of growth at 10 µM,UO-31,36%
O=C1NC(=O)C(=Cc2cn(Cc3ccccc3)c3ccccc23)C(=O)N1,GI50,CAKI-1,4.6 µM
same,LC50,CAKI-1,93 µM
same,TGI,CAKI-1,25.7 µM
same,GI50,A498,0.03 µM
same,TGI,A498,0.26 µM
same,CC50,A498,1.09 µM
same,GI50,NCI-H226,5.4 µM
same,LC50,NCI-H226,> 100 µM
same,TGI,NCI-H226,28 µM
same,GI50,K562,3.1 µM
same,TGI,K562,23 µM
same,CC50,K562,> 100 µM
same,GI50,TK-10 [1],2 µM
same,TGI,TK-10 [1],8.3 µM
same,CC50,TK-10 [1],> 100 µM
same,GI50,OVCAR-4,2 µM
same,TGI,OVCAR-4,44 µM
same,CC50,OVCAR-4,> 100 µM
same,GI50,COLO 205,1.4 µM
same,TGI,COLO 205,10.9 µM
same,CC50,COLO 205,41.6 µM
same,inhibition of growth at 10 µM,TK-10 [2],71%
same,GI50,T47D,4.5 µM
same,TGI,T47D,22.3 µM
same,CC50,T47D,95 µM
same,GI50,[3],7.5 µM
same,GI50,OVCAR-5,0.3 µM
same,TGI,OVCAR-5,3.8 µM
same,CC50,OVCAR-5,39.8 µM
same,GI50,IGROV-1,0.48 µM
same,TGI,IGROV-1,10.4 µM
same,CC50,IGROV-1,63 µM
same,GI50,MDA-MB-468,0.1 µM
same,TGI,MDA-MB-468,0.38 µM
same,CC50,MDA-MB-468,> 100 µM
same,GI50,HOP-92,1.5 µM
same,TGI,HOP-92,15 µM
same,CC50,HOP-92,58.8 µM
same,inhibition of growth at 10 µM,UO-31,29%
same,GI50,NCI-H460,0.3 µM
same,LC50,NCI-H460,63 µM
same,TGI,NCI-H460,16.5 µM
same,GI50,SK-MEL-2,2.9 µM
same,TGI,SK-MEL-2,23.4 µM
same,CC50,SK-MEL-2,> 100 µM
same,GI50,UACC-62,1.6 µM
same,LC50,UACC-62,> 100 µM
same,TGI,UACC-62,16.5 µM
same,GI50,SF-295,3.3 µM
same,TGI,SF-295,70.7 µM
same,CC50,SF-295,> 100 µM
O=C1NC(=O)C(=Cc2cn(C(=O)c3ccc(Cl)cc3)c3ccccc23)C(=O)N1,inhibition of growth at 10 µM,UO-31,22%
CN1C(=O)C(=Cc2c[nH]c3ccccc23)C(=O)N(C)C1=O,inhibition of growth at 10 µM,UO-31,33%
CN1C(=O)C(=Cc2cn(C(=O)c3ccc(Cl)cc3)c3ccccc23)C(=O)N(C)C1=O,inhibition of growth at 10 µM,RXF 393,33%
CN1C(=O)C(=Cc2cn(Cc3ccccc3)c3ccccc23)C(=O)N(C)C1=O,GI50,CAKI-1,0.5 µM
same,LC50,CAKI-1,> 100 µM
same,TGI,CAKI-1,6.4 µM
same,GI50,A498,0.2 µM
same,TGI,A498,0.64 µM
same,CC50,A498,2.29 µM
same,GI50,NCI-H226,3.4 µM
same,LC50,NCI-H226,> 100 µM
same,TGI,NCI-H226,27 µM
same,GI50,K562,4.3 µM
same,TGI,K562,> 100 µM
same,CC50,K562,> 100 µM
same,GI50,TK-10 [1],3.1 µM
same,TGI,TK-10 [1],57.5 µM
same,CC50,TK-10 [1],> 100 µM
same,GI50,OVCAR-4,6.1 µM
same,TGI,OVCAR-4,> 100 µM
same,CC50,OVCAR-4,> 100 µM
same,GI50,COLO 205,0.7 µM
same,TGI,COLO 205,9.1 µM
same,CC50,COLO 205,> 100 µM
same,inhibition of growth at 10 µM,TK-10 [2],95%
same,inhibition of growth at 10 µM,RXF 393,43%
same,GI50,T47D,5 µM
same,TGI,T47D,> 100 µM
same,CC50,T47D,> 100 µM
same,GI50,[3],13.8 µM
same,GI50,OVCAR-5,0.1 µM
same,TGI,OVCAR-5,0.67 µM
same,CC50,OVCAR-5,> 100 µM
same,GI50,IGROV-1,0.06 µM
same,TGI,IGROV-1,0.26 µM
same,CC50,IGROV-1,0.85 µM
same,GI50,MDA-MB-468,0.02 µM
same,TGI,MDA-MB-468,0.06 µM
same,CC50,MDA-MB-468,0.69 µM
same,GI50,HOP-92,8.3 µM
same,TGI,HOP-92,50 µM
same,CC50,HOP-92,> 100 µM
same,inhibition of growth at 10 µM,UO-31,36%
same,GI50,NCI-H460,4.1 µM
same,LC50,NCI-H460,> 100 µM
same,TGI,NCI-H460,> 100 µM
same,GI50,SK-MEL-2,3 µM
same,TGI,SK-MEL-2,45.7 µM
same,CC50,SK-MEL-2,> 100 µM
same,GI50,UACC-62,1 µM
same,LC50,UACC-62,> 100 µM
same,TGI,UACC-62,12.5 µM
same,GI50,SF-295,1.1 µM
same,TGI,SF-295,> 100 µM
same,CC50,SF-295,> 100 µM
Cc1ccc(S(=O)(=O)n2cc(C=C3C(=O)NC(=O)NC3=O)c3ccccc32)cc1,inhibition of growth at 10 µM,UO-31,32%
CN1C(=O)C(=Cc2cn(C(=O)c3ccccc3)c3ccccc23)C(=O)N(C)C1=O,inhibition of growth at 10 µM,RXF 393,55%
same,inhibition of growth at 10 µM,UO-31,36%
O=c1[nH]cc(F)c(=O)[nH]1 [FLUOROURACIL],GI50,[3],17.7 µM
COc1ccc2c(c1)c(CC(=O)O)c(C)n2C(=O)c1ccc(Cl)cc1 [INDOMETHACIN],GI50,[3],64.3 µM
